Laboratory results taken from patent publication US9351484B2, “N-alkyl lactam ethers, and compositions and uses thereof” (priority 2010, dated 2016).
Entries after “also recorded” stand apart in the source; their conditions may differ. Like-named read-outs stand apart in the source and are kept apart here.

Legend:
[1] = cited from earlier work
[2] = Aqueous behavior of ether/water blends, pH 1 to 13, chilled; assay type: physicochemical; conditions: equal mass ratio with water, pH adjusted from 1 to 13, chilled to −15° C.
Procedure: The blends were pH adjusted from 1 to 13 and then chilled to −15° C.

[3] = Freezing points of bis-N-ethyl pyrrolidone ether/water blends by differential scanning calorimetry; assay type: physicochemical
Procedure: The freezing points of bis-N-ethyl pyrrolidone ether/water blends were measured using differential scanning calorimetry. All measurements were conducted under nitrogen purge from 25° C. to −80° C. at a cooling rate of 5° C./min using a Q2000 calorimeter by TA Instruments.
Freezing depressions were measured for bis-N-ethyl pyrrolidone ether/water blends (Table 3).

[4] = Freezing point depression of glycerol (or other polyol)-water blends with added ether; assay type: physicochemical
Procedure: Different binary blends of glycerol and water are prepared, and then bis-N-ethyl pyrrolidone ether is added in 1% increments from 0% to 50% of the ether. The freezing point depression of these compositions is measured using a suitable differential thermometer (e.g., a thermocouple).
As a specific subclass to Example 5, a eutectic blend of glycerol-water is prepared, having about 65% glycerol (by weight) and a freezing point depression of about −46° C. Bis-N-ethyl pyrrolidone ether is added in 1% increments from 0% to 50% added ether. The freezing point depression of these compositions is measured using a suitable differential thermometer (e.g., a thermocouple).
[…], replacing glycerol with ethylene glycol, propylene glycol, or pentaerythritol.

[5] = Gas hydrate inhibitor and anti-agglomerant test; conditions: 0.5% and 1.0% (w/w NaCl brine solution), 123 bar, 2.8° C.
Procedure: Bis-N-ethyl pyrrolidone ether was assessed as a gas hydrate inhibitor and as an anti-agglomerant. A three-part fluid blend was prepared having equal mass amounts of Troika crude oil (black oil), synthetic condensate, and a sodium chloride brine solution into which the ether was dissolved. Ether addition levels were studied two times at 0.5% (w/w NaCl brine solution), and one time at 1.0% (w/w NaCl brine solution). The abovementioned fluid blend blanketed with Green Canyon gas (Table 6) at a pressure of 123 bar and maintained at 2.8° C. for the tests.

[6] = equal volume ratio
Description: The blends were visually observed to determine miscibility of the ether with the various solvents.

OCCO [ethylene glycol]
freezing point ([1]; 11% in water (by mass)): −3 °C
freezing point ([1]; 22% in water (by mass)): −8 °C
freezing point ([1]; 32% in water (by mass)): −16 °C
freezing point ([1]; 43% in water (by mass)): −25 °C
freezing point ([1]; 53% in water (by mass)): −37 °C
freezing point ([1]; 63% in water (by mass)): −55 °C
freezing point ([1]; ethylene glycol and water in equal mass ratio): −32 °C

O=C1CCCN1CCOCCN1CCCC1=O [bis-N-ethyl pyrrolidone ether]
phase behavior of blend with water [2]: single phase
freezing point ([3]; 1% in water (by mass)): −9.3 °C
freezing point ([3]; 5% in water (by mass)): −7.9 °C
freezing point ([3]; 10% in water (by mass)): −13.5 °C
freezing point ([3]; 20% in water (by mass)): −13.3 °C
freezing point ([3]; 30% in water (by mass)): −18.2 °C
freezing point ([3]; 40% in water (by mass)): −28.6 °C
freezing point ([3]; 50% in water (by mass)): −43.2 °C
freezing point ([3]; 60% in water (by mass)): <−80 °C
freezing point ([3]; 66% in water (by mass)): <−80 °C
freezing point ([3]; 75% in water (by mass)): <−80 °C
freezing point ([3]; 100% bis-N-ethyl pyrrolidone ether): <−80 °C
freezing point depression ([4]; ether added 0% to 50% to eutectic glycerol-water blend (about 65% glycerol)): lower than −46 °C
freezing point depression compared to glycerol-water binary blends ([4]; ether added 0% to 50% to glycerol-water blends): further depress the freezing point depression
freezing point depression compared to solutions without the ether ([4]; glycerol replaced with ethylene glycol, propylene glycol, or pentaerythritol): lowers the freezing point depression
formation of gas hydrates and agglomerants [5]: considerably limited gas hydrate formation; also recorded: very small
pH in a 50% aqueous solution (50% aqueous solution): 9.5
viscosity (Cannon Fenske viscometer, #300 tube): 96.4 cP^†
color (APHA) (neat): >500
freezing point (neat): <−80 °C
refractive index (neat): around 1.51
specific gravity (neat): 1.148
thermal decomposition temperature (neat): 275 °C
physical state (neat, ambient conditions): liquid (ambient conditions)
refractive index (neat, listed as bis-N-ethyl pyrrolidone): 1.5063
surface tension (static) (plate): 50.2
surface tension (static) (ring): 51.1
miscibility observation ([6]; 2-propanol): miscible
miscibility observation ([6]; acetone): miscible
miscibility observation ([6]; cyclohexane): immiscible
miscibility observation ([6]; cyclohexane, listed as bis-N-ethyl pyrrolidone): insoluble
miscibility observation ([6]; ethyl acetate): miscible
miscibility observation ([6]; hexane): immiscible
miscibility observation ([6]; hexane, listed as bis-N-ethyl pyrrolidone): insoluble
miscibility observation ([6]; methanol): miscible
miscibility observation ([6]; methyl ethyl ketone): miscible
miscibility observation ([6]; toluene): miscible
miscibility observation ([6]; water): miscible
